We go through three molecules from patent publication US10150737B2, “Compounds for controlling arthropods” (priority 2013, dated 2018).

For data set [1], the system named is Anopheles gamhiae strain RSPH (homozygot kdr). Description: Anopheles test (ANPHGB surface treatment). Format: in vivo. The settings on record: read-out: efficacy (mortality). Here is the method: (§1) Solvent: acetone+2000 ppm rapeseed oil methyl ester (RME)
To produce an appropriate active ingredient formulation, the active ingredient is dissolved in the solvent (2 mg/ml). The active ingredient formulation is pipetted onto a glazed tile and, after it has dried off, adult mosquitoes of the species Anopheles gamhiae strain RSPH (homozygot kdr) are placed onto the treated tile. The exposure time is 30 minutes.
(§2) 24 hours after contact with the treated surface, mortality in % is determined. 100% means that all mosquitoes have been killed; 0% means that none of the mosquitoes have been killed.

Data set [2] deals with Boophilus microplus Parkhurst strain, SP-resistant. Description: Boophilus microplus - dip test. The settings on record: application rate 100 ppm; dip of engorged adult female ticks; after 7 days. Format: in vivo. The gist of the method: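 SP-resistant Parkhurst strain engorged adult female Boophilus microplus (8-10 per tube) dipped in DMSO-based compound dilutions in water, then kept in a climate-controlled room. Efficacy scored after 7 days from fertile egg laying, with larval hatch checked after about 42 days; 100% means no fertile eggs.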

In data set [3] the test system is Boophilus microplus. Description: Boophilus microplus - injection test. Conditions: Rhipicephalus microplus, 168 h; application rate 20 μg/animal; injection into engorged adult female ticks; after 7 days; read-out: efficacy (laying of fertile eggs). The format is in vivo. The gist of the method:
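Active ingredient in DMSO, 1 μl injected into the abdomen of 5 engorged adult female ticks, then held in a climate-controlled room. Efficacy scored after 7 days from laying of fertile eggs, with non-fertile-looking eggs kept about 42 days for larval hatch; 100% means no fertile eggs.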

In data set [4] the test system is Aedes aegypti strain MONHEIM. Description: Aedes test (AEDSAE surface treatment). Format: in vivo. The settings on record: read-out: efficacy (mortality). Here is the method:
as §1
To produce an appropriate active ingredient formulation, the active ingredient is dissolved in the solvent (2 mg/ml). The active ingredient formulation is pipetted onto a glazed tile and, after it has dried off, adult mosquitoes of the species Aedes aegypti strain MONHEIM are placed onto the treated tile. The exposure time is 30 minutes.
as §2

A short description of data set [5]: logP determination by HPLC on a reversed-phase column (C18). Format: physicochemical. Conditions: for log P: HPLC-MS, reversed-phase column (C18), Table I-T3.
The subject of data set [6] is Ctenocephalides felis. Briefly: Ctenocephalides felis - in vitro contact tests with adult cat fleas. Format: in vivo. Conditions: application rate 5 μg/cm2 (=500 g/ha); after 48 h; fleas dead or moribund. In short, it runs like this:
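Tubes coated with compound in acetone (250 μl of 900 ppm solution gives 5 μg/cm^2 on 44.7 cm^2), solvent evaporated, then 5–10 adult fleas added and kept horizontal at room temperature and ambient humidity. After 48 h, dead or moribund (motionless/uncoordinated) fleas scored as % efficacy.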

Data set [7] has as its system Rhipicephalus sanguineus. Briefly: Rhipicephalus sanguineus - in vitro contact tests with adult brown dog ticks. The format is in vivo. The settings on record: application rate 5 μg/cm2; after 48 h; ticks dead or moribund. In short, it runs like this: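 Test tubes coated with active ingredient in acetone, 5 μg/cm^2 at 900 ppm. 5-10 adult ticks per tube, kept dark at room temperature for 48 h. Ticks then heated at 45-50° C ≤5 min; motionless or uncoordinated ticks scored dead/moribund, efficacy as % dead or moribund.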

The test system of data set [8] is Amblyomma hebraeum. Briefly: Amblyomma hebaraeum test (tick nymphs, immersion). The format is in vivo. Conditions: application rate 100 ppm; tick nymphs immersed one minute; after 42 days. The gist of the method:
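Tick nymphs immersed for one minute in compound diluted in water from a DMSO concentrate, then held on filter paper in a Petri dish in a climate-controlled cabinet. Kill (%) scored after 42 days; 100% means all ticks dead, 0% none.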

Data set [9] concerns Myzus persicae. Briefly: Myzus persicae - spray test. The format is in vivo. The settings on record: Chinese cabbage leaf discs, after 6 days. In short, it runs like this: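 Chinese cabbage leaf discs carrying all stages of Myzus persicae sprayed with compound in acetone/DMF diluted in water with 1000 ppm emulsifier. Efficacy (% aphids killed) assessed after 6 days.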
The test system of data set [10] is Musca domestica. Briefly: Musca domestica test. Conditions: application rate 100 ppm; adult houseflies; after 2 days. The format is in vivo. In short, it runs like this: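 Feeding exposure: adult Musca domestica, 10 per vessel, given a sponge with sugar solution and test formulation at the desired concentration; % mortality determined on day 2.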
The subject of data set [11] is Anopheles funestus strain FUMOZ-R. Briefly: Anopheles test (ANPHFU surface treatment). Conditions: read-out: efficacy (mortality). Format: in vivo. The method, then: as §1
To produce an appropriate active ingredient formulation, the active ingredient is dissolved in the solvent (2 mg/ml). The active ingredient formulation is pipetted onto a glazed tile and, after it has dried off, adult mosquitoes of the species Anopheles funestus strain FUMOZ-R (Hunt et al., Med Vet Entomol. 2005 September; 19 (3):271-5) are placed onto the treated tile. The exposure time is 30 minutes.
as §2

Data set [12] has as its system Tetranychus urticae. Briefly: Tetranychus urticae - spray test, OP-resistant. The format is in vivo. Conditions: application rate 500 g/ha; bean leaf discs; after 6 days. The gist of the method:
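Compound dissolved in acetone/DMF, diluted with water containing 1000 ppm alkylaryl polyglycol ether emulsifier to test concentrations. Bean leaf discs infested with all stages of spider mites were sprayed; % kill determined after 6 days (100% = all mites dead, 0% = none).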

For data set [13], the system named is Spodoptera frugiperda. Briefly: Spodoptera frugiperda - spray test. The format is in vivo. The settings on record: application rate 500 g/ha; caterpillars on maize leaf discs; after 7 days. In short, it runs like this:
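Maize leaf discs sprayed with compound formulated in acetone/DMF and diluted in water containing 1000 ppm alkylaryl polyglycol ether emulsifier, then infested with armyworm caterpillars after drying. Efficacy scored after 7 days as % caterpillars killed (100% all, 0% none).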

For data set [14], the system named is Meloidogyne incognita. Briefly: Meloidogyne incognita test. The format is in vivo. The settings on record: application rate 20 ppm; lettuce; after 14 days. The method, then:
Solvent: 125.0 parts by weight of acetone
To produce an appropriate active ingredient formulation, 1 part by weight of active ingredient is mixed with the stated amount of solvent and the concentrate is diluted with water to the desired concentration.
Vessels are filled with sand, active ingredient solution, an egg/larvae suspension of the southern root-knot nematode (Meloidogyne incognita) and lettuce seeds. The lettuce seeds germinate and the plants develop. The galls develop on the roots.
After 14 days, the nematicidal efficacy in % is determined by the formation of galls. 100% means that no galls were found; 0% means that the number of galls on the treated plants corresponds to the untreated control.

In data set [15] the test system is Phaedon cochleariae. Description: Phaedon cochleariae - spray test. Format: in vivo. The settings on record: application rate 500 g/ha; larvae on Chinese cabbage leaf discs; after 7 days. The gist of the method: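 Chinese cabbage leaf discs sprayed with compound formulated in acetone/DMF and water containing 1000 ppm emulsifier; once dry, infested with mustard beetle larvae. Efficacy (% larvae killed) scored after 7 days.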

Each structure is given as a SMILES string.

On to `Cc1cc(C(F)(C(F)(F)F)C(F)(F)F)cc(C)c1-c1cc(-c2ccc(Cl)c(C(=O)NC3CC3)c2)on1` [I-T22-1, 2-chloro-N-cyclopropyl-5-[3-[2,6-dimethyl-4-[1,2,2,2-tetrafluoro-1-(trifluoromethyl)ethyl]phenyl]isoxazol-5-yl]benzamide], for which the mortality at 100 mg/m2 in [1], in data set [4] and in data set [11] was 90 to 100% throughout. Further, in data set [2], the “efficacy (laying of fertile eggs)” value worked out at 100%. In addition, the pest or weed control at 0.02 mg in data set [3] was determined as 100%. The mortality at 20 mg/m2 in data set [4] and in [11] was 90 to 100% throughout. The log partition coefficient (logP) (in general, the decadic logarithm of the partition coefficient of the neutral form, usually between octanol and water) in data set [5] (HPLC, C18 reversed phase, acetonitrile/water with formic acid, EEC Directive 79/831 Annex V.A8) is on record as 4.8. Also, the efficacy in data set [6], in data set [7] and in [9] (application rate 100 g/ha) was 100% in each case. Also, the “efficacy (kill)” value in data set [8] and in data set [10] was 100% throughout.
On to `N#CC1(NC(=O)c2cc(-c3cnn(-c4c(Cl)cc(C(F)(F)F)c(F)c4Cl)c3)ccc2Cl)CC1` [I-T3-185], for which the log P (in general, the decadic logarithm of the partition coefficient of the neutral form, usually between octanol and water) in [5] is reported as 3.6. Besides, the efficacy in data set [9] (application rate 500 g/ha), in data set [12], in data set [13] and in [15] was 100% in each case. Further, the “nematicidal efficacy (formation of galls)” value in [14] was 90%.
Take `O=C(NC1CC1)c1cc(-c2cnn(-c3c(Cl)cc(C(F)(F)F)c(F)c3Cl)c2)ccc1Cl` [I-T3-184]: the “log P” value in [5] came out at 3.6. For the same molecule, the efficacy in data set [9] (application rate 100 g/ha), in [12], in [13] and in data set [15] was 100% throughout. Besides, in [14], the “nematicidal efficacy (formation of galls)” value was 90%.
